In patent US4281009A, “Hydantoin derivatives” (Nippon Zoki Pharmaceutical Co., Ltd., priority 1978, dated 1981):

How the values were obtained:
[1] = Acute toxicity test (LD50, Litchfield-Wilcoxon), rats; conditions: rat, in vivo, ip, intraperitoneal
Method: (§1) Toxicity tests were carried out by intraperitoneal administration of the compound of the present invention to groups each comprising 10 ICR-strain mice and SD-strain rats. LD50 was calculated by the Litchfield-Wilcoxon method based on the number of death 72 hours after the administration.

[2] = Acute toxicity test (LD50, Litchfield-Wilcoxon), mice; conditions: mouse, in vivo, ip, intraperitoneal
Method: as §1

[3] = tested on: normal mice and SART stress mice; test: Analgesic effect, D'Amour-Smith method; format: in vivo, mice (ddY-strain male); conditions: Mus musculus; for responders at 200 mg/kg: intraperitoneal 200 mg/kg
Method: 5.3. D'Amour-Smith method:
Groups each comprising 10 ddY-strain male normal mice and SART stress mice to which SART stress had been applied for 4 days were used. The root of the tail of the mouse to which black ink was applied was irradiated with infrared rays for up to 15 seconds. Time required till escape response was observed was measured. The effect was shown by the ratio of the mice in which an average value of the response time at 30, 60, 90 and 120 minutes after the administration of the compounds of the present invention or other comparative drugs was prolonged to at least 2 times as long as the time before the administration.

ddY-strain male mice = test: Effect of prolongation of sleeping time (hexobarbital); format: in vivo; conditions: for change in vivo at 100 mg/kg / change in vivo at 300 mg/kg: Mus musculus, ip; for change in vivo at 100 mg/kg: 100 mg/kg intraperitoneal; for change in vivo at 300 mg/kg: 300 mg/kg intraperitoneal; for Effect of prolongation of sleeping time: 50 mg/kg intraperitoneal
Method: 7. Effect of prolongation of sleeping time:
Groups of mice each comprising 10 ddY-strain male mice were used. Sodium salt of hexobarbital was given intraperitoneally. Thereafter, the period of time in which righting reflex disappeared was measured. The effect was evaluated on the basis of prolongation of time of disappearance of righting reflex by the intraperitoneal administration of the compounds of the present invention as compared with control mice.

[4] = tested on: normal mice and SART stress mice; test: Analgesic effect, tail pressure method (Randall-Selitto's device); format: in vivo, mice (ddY-strain male); conditions: for change in vivo at 100 mg/kg / change in vivo at 200 mg/kg: Mus musculus; for change in vivo at 200 mg/kg: intraperitoneal 200 mg/kg; for Analgesic effect: intraperitoneal 50 mg/kg
Method: 5.1 Tail pressure method:
Randall-Selitto's device for determining analgesic effect by pressure stimulation was used. […]. The compounds of the present invention or other comparative drugs were given thereto and analgesic effect was determined. The effect was judged by measuring pressure applied 60 minutes after the intraperitoneal administration of the compounds of the present invention. The pressure thus measured was divided by a pressure before the administration. The value thus obtained was compared with that of a control group (to which 10 ml./Kg of 0.5% sodium salt of carboxymethylcellulose or 0.5% Tween 80 was given). When the compounds of the present invention were given perorally and other comparative drugs were given, an average of the pressure at 30, 60, 90 and 120 minutes after the administration was employed for evaluating the effect.

[5] = tested on: normal mice and SART stress mice; test: Analgesic effect, acetic acid writhing method; format: in vivo; conditions: Mus musculus, sc, 100 mg/Kg subcutaneously
Method: 5.2. Acetic acid writhing method: 0.1 ml./10 g of isotonic sodium chloride solution containing 0.7% acetic acid was given intraperitoneally to groups of mice each comprising 5 normal mice and 5 SART stress mice to which SART stress had been applied for 8 days. Writhing syndromes number appeared for 15 minutes after the administration was measured. The effect was evaluated by giving 100 mg/Kg of the compounds of the present invention or DPH subcutaneously and comparing the writhing syndromes number of the mice with that of control mice.

[6] = ip, 1 h, SART stress mice, intraperitoneal 100 mg/kg, 60 minutes
[7] = ip, 1 h, normal mice, intraperitoneal 100 mg/kg, 60 minutes
[8] = ip, 1 h, SART stress mice, 60 minutes
[9] = ip, 1 h, normal mice, 60 minutes

| Structure (SMILES) | LD50 at 72 h ([1]; female) [mg/kg] | LD50 at 72 h ([1]; male) [mg/kg] | LD50 at 72 h ([2]; female) [mg/kg] | LD50 at 72 h ([2]; male) [mg/kg] | change in vivo at 100 mg/kg (ddY-strain male mice) [%] | change in vivo at 300 mg/kg (ddY-strain male mice) [%] | other results |
| --- | --- | --- | --- | --- | --- | --- | --- |
| COc1cc(C2(c3cc(OC)c(OC)c(OC)c3)NC(=O)NC2=O)cc(OC)c1OC [Compound 23, 5,5-Bis(3,4,5-trimethoxyphenyl)hydantoin] | > 5000 | > 5000 | > 5000 | > 5000 | 19.9 | 22.6 | responders at 200 mg/kg ([3]; ip, SART stress mice): 40%; responders at 200 mg/kg ([3]; ip, normal mice): 20%; change in vivo at 100 mg/kg [4, 6]: 66%; change in vivo at 100 mg/kg [4, 7]: 38.1% |
| COc1ccc(C2(c3ccc(OC)c(OC)c3)NC(=O)NC2=O)cc1 (centres unmarked) [Compound 16, 5-(3,4-Dimethoxyphenyl)-5-(4-methoxyphenyl)hydantoin] | > 5000 | > 5000 | > 5000 | > 5000 |  | 20.8 |  |
| COc1ccc(C2(c3ccc(O)cc3)NC(=O)NC2=O)cc1 (centres unmarked) [Compound 11, 5-(4-Hydroxyphenyl)-5-(4-methoxyphenyl)hydantoin] | > 5000 | > 5000 | 3000 | > 3000 |  |  |  |
| Cc1ccc(C2(c3ccc(C)cc3)NC(=O)NC2=O)cc1 [Compound 13, 5,5-Bis(4-methylphenyl)hydantoin] | > 5000 | > 5000 | > 5000 | > 5000 |  | 14.1 |  |
| O=C1NC(=O)C(c2ccccc2)(c2ccccc2O)N1 (centres unmarked) [Compound 6, 5-(2-Hydroxyphenyl)-5-phenylhydantoin] | > 5000 | > 5000 | > 5000 | > 5000 | 30.6 | 33.7 | change in vivo at 100 mg/kg [4, 6]: 62.7%; change in vivo at 100 mg/kg [4, 7]: 38.1% |
| CCCOc1ccc(C2(c3ccc(OCCC)cc3)NC(=O)NC2=O)cc1 [Compound 10, 5,5-Bis(4-propoxyphenyl)hydantoin] | 3800 to 4000 | 4000 | 3460 | 3600 |  |  | Effect of prolongation of sleeping time (ddY-strain male mice): 17.0% |
| O=C1NC(=O)C(c2ccccc2OCc2ccccc2)(c2ccccc2OCc2ccccc2)N1 [Compound 12, 5,5-Bis(2-benzyloxyphenyl)hydantoin] | > 5000 | > 5000 | > 5000 | > 5000 |  |  |  |
| COc1ccc(C2(c3ccc(OC)cc3OC)NC(=O)NC2=O)cc1 (centres unmarked) [Compound 15, 5-(2,4-Dimethoxyphenyl)-5-(4-methoxyphenyl)hydantoin] | > 5000 | > 5000 | > 5000 | > 5000 | 15.4 | 23.9 |  |
| COc1cc(C2(c3ccc(OC)c(OC)c3OC)NC(=O)NC2=O)cc(OC)c1OC (centres unmarked) [Compound 22, 5-(2,3,4-Trimethoxyphenyl)-5-(3,4,5-trimethoxyphenyl)hydantoin] | > 5000 | > 5000 | > 5000 | > 5000 | 13.1 |  |  |
| O=C1NC(=O)C(c2ccc(O)cc2O)(c2ccc(O)cc2O)N1 [Compound 34, 5,5-Bis(2,4-dihydroxyphenyl)hydantoin] | 2000 to 3000 | 2000 to 3000 | 1200 | > 1000 |  |  |  |
| O=C1NC(=O)C(c2cccc(O)c2)(c2cccc(O)c2)N1 [Compound 8, 5,5-Bis(3-hydroxyphenyl)hydantoin] | 1660 | 1800 | 1270 | 1350 | 16.9 |  | change in vivo at 100 mg/kg [4, 6]: 54.7%; change in vivo at 100 mg/kg [4, 7]: 22.9% |
| CCC1(c2ccccc2O)NC(=O)NC1=O (centres unmarked) [Compound 25, 5-Ethyl-5-(2-hydroxyphenyl)hydantoin] | 1480 | 1600 | 1040 | 1230 |  | 55.4 | inhibition in vivo at 100 mg/kg ([5]; SART stress mice): 19.8%; inhibition in vivo at 100 mg/kg ([5]; normal mice): 1.9%; change in vivo at 200 mg/kg [4, 8]: 49%; change in vivo at 200 mg/kg [4, 9]: 35.5% |
| COc1ccc(C2(c3ccc(OC)cc3OC)NC(=O)NC2=O)c(OC)c1 [Compound 18, 5,5-Bis(2,4-Dimethoxyphenyl)hydantoin] | > 5000 | > 5000 | > 5000 | > 5000 |  |  |  |
| O=C1NC(=O)C(c2ccc(O)cc2)(c2ccc(O)cc2O)N1 (centres unmarked) [Compound 31, 5-(2,4-Dihydroxyphenyl)-5-(4-hydroxyphenyl)hydantoin] | 1510 | 1540 | 1200 | 1220 | 19.1 |  |  |
| O=C1NC(=O)C(c2ccc(O)c(O)c2)(c2ccc(O)c(O)c2)N1 [Compound 17, 5,5-Bis(3,4-dihydroxyphenyl)hydantoin] | 2220 | 2400 | 1800 | 1500 to 2000 |  |  |  |
| COc1ccc(C2(c3ccc(OC)c(OC)c3)NC(=O)NC2=O)cc1OC [Compound 19, 5,5-Bis(3,4-dimethoxyphenyl)hydantoin] | > 5000 | > 5000 | > 5000 | > 5000 | 10 |  |  |
| O=C1NC(=O)C(c2ccccc2O)(c2ccccc2O)N1 [Compound 29, 5,5-Bis(2-hydroxyphenyl)hydantoin] | 1900 | 1980 | 1600 | 1600 to 1800 |  |  |  |
| COc1ccc(C2(c3ccc(OC)c(CO)c3)NC(=O)NC2=O)cc1CO [Compound 21, 5,5-Bis(3-hydroxymethyl-4-methoxyphenyl)hydantoin] | > 5000 | > 5000 | > 5000 | > 5000 | 25.1 |  |  |
| O=C1NC(=O)C(c2ccc(O)cc2)(c2ccc(O)c(O)c2)N1 (centres unmarked) [Compound 14, 5-(3,4-Dihydroxyphenyl)-5-(4-hydroxyphenyl)hydantoin] | 1480 | 1500 | 1200 | 1280 | 20.2 |  | responders at 100 mg/kg ([3]; ip, SART stress mice, intraperitoneal 100 mg/kg): 60%; responders at 100 mg/kg ([3]; ip, normal mice, intraperitoneal 100 mg/kg): 30%; inhibition in vivo at 100 mg/kg ([5]; SART stress mice): 36.2%; inhibition in vivo at 100 mg/kg ([5]; normal mice): 5%; change in vivo at 100 mg/kg [4, 6]: 102%; change in vivo at 100 mg/kg [4, 7]: 42.6%; Analgesic effect ([4]; SART stress mice, 60 minutes): 78.3%; Analgesic effect ([4]; normal mice, 60 minutes): 35.2% |
| O=C1NC(=O)C(c2ccc(O)c(CO)c2)(c2ccc(O)c(CO)c2)N1 [Compound 20, 5,5-Bis(4-hydroxy-3-hydroxymethylphenyl)hydantoin] | 4090 | 4310 | 2980 | > 3000 |  |  |  |
| Cc1c(N(C)C)c(=O)n(-c2ccccc2)n1C [Aminopyrine, reference compound] |  |  |  |  |  |  | responders at 100 mg/kg ([3]; po, SART stress mice, peroral 100 mg/kg): 50%; responders at 100 mg/kg ([3]; po, normal mice, peroral 100 mg/kg): 10%; change in vivo at 100 mg/kg ([4]; po, SART stress mice, peroral 100 mg/kg, average of 30, 60, 90 and 120 minutes): 58.9%; change in vivo at 100 mg/kg ([4]; po, normal mice, peroral 100 mg/kg, average of 30, 60, 90 and 120 minutes): 43.5% |
| CCCOc1ccccc1C1(c2ccccc2OCCC)NC(=O)NC1=O [Compound 9, 5,5-Bis(2-propoxyphenyl)hydantoin] | > 5000 | > 5000 | > 5000 | > 5000 |  | 39 | Effect of prolongation of sleeping time (ddY-strain male mice): 10.5%; change in vivo at 200 mg/kg [4, 8]: 74.4%; change in vivo at 200 mg/kg [4, 9]: 21.3% |
